In patent publication US20110079775A1, “Solution Processable Organic Semiconductors” (priority 2008, published 2011) one finds solubility in dichlorobenzene, solubility in n-butylbenzene and solubility in xylene data, which are given here for one molecule.

The format of the data set is physicochemical. As for the experimental part: The solubility of B4MP-TIPS-An, which was synthesized in Example 1, was measured in various solvents at room temperature. This small molecule semiconductor had moderate solubility in n-butylbenzene (about 1.0 weight percent) and good solubility in dichlorobenzene (greater than 6.0 weight percent) and xylene (about 3.5 weight percent). The weight percent is based on the total solution weight.

On to `COc1ccc(-c2ccc3c(C#C[Si](C(C)C)(C(C)C)C(C)C)c4cc(-c5ccc(OC)cc5)ccc4c(C#C[Si](C(C)C)(C(C)C)C(C)C)c3c2)cc1` [Example B4MP-TIPS-An, 2,6-Bis(4-methoxy-phenyl)-9,10-bis-[(triisopropylsilyl)ethynyl]anthracene], for which the solubility in dichlorobenzene result was “greater than 6.0 weight percent”, the solubility in n-butylbenzene entry was “about 1.0 weight percent” and the solubility in xylene entry is given as “about 3.5 weight percent”.
